Laboratory results reported in ChEMBL document CHEMBL1201862, “PubChem BioAssay data set” (2004).
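96-well plates; 48 h exposure; 5 concentrations. Endpoints by linear interpolation between flanking doses. Not reached: highest tested concentration assigned. At the GI50, growth is halved.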 Active and inactive are the calls of the source. Rule as the data show it: active = GI50 up to about 1.1 µM and inactive = higher.

How the values were obtained:
Assay in all cases: NCI tumour cell line growth inhibition, 48 h
[1] = test system: SK-MEL-28
[2] = test system: Malme-3M
[3] = test system: UO-31
[4] = test system: 786-0
[5] = test system: NCI-H460
[6] = test system: DU-145
[7] = test system: SNB-75
[8] = test system: KM12
[9] = test system: NCI-H226
[10] = test system: LOX IMVI
[11] = test system: U-251
[12] = test system: OVCAR-8
[13] = test system: OVCAR-5
[14] = test system: TK-10
[15] = test system: NCI/ADR-RES
[16] = test system: OVCAR-4
[17] = test system: SK-MEL-5
[18] = test system: SW-620
[19] = test system: MDA-MB-435
[20] = test system: SF-539
[21] = test system: UACC-257
[22] = test system: HCC 2998
[23] = test system: T47D
[24] = test system: ACHN
[25] = test system: MCF7
[26] = test system: PC-3
[27] = test system: A498
[28] = test system: SF-268
[29] = test system: HOP-62
[30] = test system: SK-OV-3
[31] = test system: UACC-62
[32] = test system: RPMI-8226
[33] = test system: SK-MEL-2
[34] = test system: NCI-H23
[35] = test system: IGROV-1
[36] = test system: CCRF-CEM
[37] = test system: EKVX
[38] = test system: SN12C
[39] = test system: BT-549
[40] = test system: OVCAR-3
[41] = test system: Hs-578T
[42] = test system: RXF 393
[43] = test system: M14
[44] = test system: K562
[45] = test system: COLO 205
[46] = test system: HCT-15
[47] = test system: SNB-19
[48] = test system: SF-295
[49] = test system: MOLT-4
[50] = test system: CAKI-1
[51] = test system: A549
[52] = test system: HT-29
[53] = test system: NCI-H522
[54] = test system: HCT-116
[55] = test system: HL-60
[56] = test system: MDA-N
[57] = test system: HOP-92
[58] = test system: SR
[59] = test system: MDA-MB-231

Nc1n2nc(-c3ccccc3)sc2n[n+]1CC(=O)c1ccccc1
GI50 [1]: 25.4 µM (inactive) | GI50 [2]: > 10 µM (inactive) | GI50 [3]: 16.6 µM (inactive) | GI50 [4]: 19.9 µM (inactive) | GI50 [5]: 11.5 µM (inactive) | GI50 [6]: 17.8 µM (inactive) | GI50 [7]: 26.3 µM (inactive) | GI50 [8]: 6.3 µM (inactive) | GI50 [9]: 16.7 µM (inactive) | GI50 [10]: 11.1 µM (inactive) | GI50 [11]: 12.6 µM (inactive) | GI50 [12]: 15.1 µM (inactive) | GI50 [13]: 34.8 µM (inactive) | GI50 [14]: 27.4 µM (inactive) | GI50 [15]: 14 µM (inactive) | GI50 [16]: 47.2 µM (inactive) | GI50 [17]: 7.43 µM (inactive) | GI50 [18]: 4.89 µM (inactive) | GI50 [19]: 2.72 µM (inactive) | GI50 [20]: 6.78 µM (inactive) | GI50 [21]: 26.1 µM (inactive) | GI50 [22]: 12.5 µM (inactive) | GI50 [23]: 30.4 µM (inactive) | GI50 [24]: 12.9 µM (inactive) | GI50 [25]: 5.37 µM (inactive) | GI50 [26]: 11 µM (inactive) | GI50 [27]: 25.1 µM (inactive) | GI50 [28]: 24.4 µM (inactive) | GI50 [29]: 14 µM (inactive) | GI50 [30]: 16.7 µM (inactive) | GI50 [31]: 7.06 µM (inactive) | GI50 [32]: 12.5 µM (inactive) | GI50 [33]: 38.5 µM (inactive) | GI50 [34]: 13.8 µM (inactive) | GI50 [35]: 12.6 µM (inactive) | GI50 [36]: 3.07 µM (inactive) | GI50 [37]: 31.6 µM (inactive) | GI50 [38]: 27.6 µM (inactive) | GI50 [39]: 25.9 µM (inactive) | GI50 [40]: 14.7 µM (inactive) | GI50 [41]: 47.6 µM (inactive) | GI50 [42]: 10.8 µM (inactive) | GI50 [43]: 10.1 µM (inactive) | GI50 [44]: 3.09 µM (inactive) | GI50 [45]: 17 µM (inactive) | GI50 [46]: 12.9 µM | GI50 [47]: 21.7 µM (inactive) | GI50 [48]: 14 µM (inactive) | GI50 [49]: 3.66 µM (inactive) | GI50 [50]: 12.3 µM (inactive) | GI50 [51]: 21.2 µM (inactive) | GI50 [52]: 9.53 µM (inactive) | GI50 [53]: 15.8 µM (inactive)

Cc1ccc2c(=O)c3cccc(CC(=O)O)c3[nH]c2c1C
GI50 [1]: > 100 µM (inactive) | GI50 [2]: > 100 µM (inactive) | GI50 [3]: > 100 µM (inactive) | GI50 [4]: > 100 µM (inactive) | GI50 [5]: > 100 µM (inactive) | GI50 [6]: > 100 µM (inactive) | GI50 [8]: > 100 µM (inactive) | GI50 [9]: > 100 µM (inactive) | GI50 [10]: > 100 µM (inactive) | GI50 [54]: > 100 µM (inactive) | GI50 [11]: 27.9 µM (inactive) | GI50 [12]: > 100 µM (inactive) | GI50 [14]: > 100 µM (inactive) | GI50 [15]: > 100 µM (inactive) | GI50 [16]: > 100 µM (inactive) | GI50 [17]: 33.3 µM (inactive) | GI50 [18]: > 100 µM (inactive) | GI50 [19]: 65.6 µM (inactive) | GI50 [20]: > 100 µM (inactive) | GI50 [21]: > 100 µM (inactive) | GI50 [22]: > 10 µM (inactive) | GI50 [55]: > 100 µM (inactive) | GI50 [24]: > 100 µM (inactive) | GI50 [25]: 71.6 µM (inactive) | GI50 [26]: > 100 µM (inactive) | GI50 [27]: > 100 µM (inactive) | GI50 [28]: 17.5 µM (inactive) | GI50 [29]: > 100 µM (inactive) | GI50 [30]: > 100 µM (inactive) | GI50 [56]: > 100 µM (inactive) | GI50 [31]: > 100 µM (inactive) | GI50 [57]: > 100 µM (inactive) | GI50 [32]: > 100 µM (inactive) | GI50 [34]: > 100 µM (inactive) | GI50 [35]: > 100 µM (inactive) | GI50 [58]: > 100 µM (inactive) | GI50 [36]: > 100 µM (inactive) | GI50 [37]: > 100 µM (inactive) | GI50 [38]: > 100 µM (inactive) | GI50 [39]: > 100 µM (inactive) | GI50 [40]: 57.8 µM (inactive) | GI50 [41]: 72.1 µM (inactive) | GI50 [43]: > 100 µM (inactive) | GI50 [44]: > 100 µM (inactive) | GI50 [45]: > 100 µM (inactive) | GI50 [46]: > 100 µM | GI50 [47]: > 100 µM (inactive) | GI50 [48]: > 100 µM (inactive) | GI50 [49]: > 100 µM (inactive) | GI50 [50]: > 100 µM (inactive) | GI50 [51]: > 100 µM (inactive) | GI50 [52]: > 100 µM (inactive) | GI50 [53]: > 100 µM (inactive) | GI50 [59]: > 100 µM (inactive)

Cc1cccc2oc3c(CC(=O)O)cccc3c(=O)c12
GI50 [1]: > 100 µM (inactive) | GI50 [2]: > 100 µM (inactive) | GI50 [3]: > 100 µM (inactive) | GI50 [4]: > 100 µM (inactive) | GI50 [5]: > 100 µM (inactive) | GI50 [6]: > 100 µM (inactive) | GI50 [8]: > 100 µM (inactive) | GI50 [9]: > 100 µM (inactive) | GI50 [10]: > 100 µM (inactive) | GI50 [54]: > 100 µM (inactive) | GI50 [11]: > 100 µM (inactive) | GI50 [12]: > 100 µM (inactive) | GI50 [14]: > 100 µM (inactive) | GI50 [15]: > 100 µM (inactive) | GI50 [16]: > 100 µM (inactive) | GI50 [17]: > 100 µM (inactive) | GI50 [18]: > 100 µM (inactive) | GI50 [19]: > 100 µM (inactive) | GI50 [20]: > 100 µM (inactive) | GI50 [21]: > 100 µM (inactive) | GI50 [22]: 20.5 µM (inactive) | GI50 [55]: > 100 µM (inactive) | GI50 [24]: > 100 µM (inactive) | GI50 [25]: > 100 µM (inactive) | GI50 [26]: > 100 µM (inactive) | GI50 [27]: > 100 µM (inactive) | GI50 [28]: > 100 µM (inactive) | GI50 [29]: > 100 µM (inactive) | GI50 [56]: > 100 µM (inactive) | GI50 [57]: > 100 µM (inactive) | GI50 [32]: > 100 µM (inactive) | GI50 [33]: 5.16 µM (inactive) | GI50 [34]: > 100 µM (inactive) | GI50 [35]: > 100 µM (inactive) | GI50 [58]: > 100 µM (inactive) | GI50 [36]: > 100 µM (inactive) | GI50 [37]: > 100 µM (inactive) | GI50 [38]: > 100 µM (inactive) | GI50 [39]: > 100 µM (inactive) | GI50 [40]: > 100 µM (inactive) | GI50 [41]: > 100 µM (inactive) | GI50 [43]: > 100 µM (inactive) | GI50 [44]: > 100 µM (inactive) | GI50 [45]: > 100 µM (inactive) | GI50 [46]: > 100 µM | GI50 [47]: > 100 µM (inactive) | GI50 [48]: > 100 µM (inactive) | GI50 [49]: > 100 µM (inactive) | GI50 [50]: > 100 µM (inactive) | GI50 [51]: > 100 µM (inactive) | GI50 [52]: > 100 µM (inactive) | GI50 [53]: > 100 µM (inactive) | GI50 [59]: > 100 µM (inactive)
